Measured values from patent US6495567B1, “Triaryl methane compounds and their use in the treatment of diarrhea and scours” (Beth Israel Deaconess Medical Center, priority 1996, dated 2002).
pIC50: −log10 of the molar value. Read-outs that look alike come from different tables or passages of the source.

Experiments:
basolateral K+ channels = assay: Basolateral K+ conductance in T84 monolayers permeabilized apically with amphotericin B; type: cell-based, human
Method: Selective mebrane Permeabilization and Measurement of Potassium Conductance of the Basolateral Membrane. The basolateral potassium conductance was measured using the technique developed by Dawson and co-workers. A potassium gradient (mucosal to serosal) was first established across the monolayer using asymmetric mucosal and serosal buffers containing K^+ as the sole permeant ion. The addition of amphotericin B (20 μM) to the mucosal reservoir forms conductive pores in the apical membrane, and thus removes all resistance to transepithelial potassium movement across this membrane. Thus, under the conditions of the experiment, in which the monolayer is short circuited (i.e., voltage-clamped at zero potential) and the transepithehal potassium gradient is constant, the amphotericin-dependent Isc becomes a measure of the rate of the transepithelial potassium flux across basolateral membranes. Changes in short circuit current (Isc), then represent changes in basolateral K^+ conductances (gK). Isc and K^+ conductances were measured using calomel electrodes, 3M KCI-agar bridges, and a voltage clamp (University of Iowa, Iowa City). To generate a voltage-current channel relationships, currents were elicited by 1 sec test potentials from −80 to +80 in 10 mV increments in the asymmetrical high K^+ gluconate solution.
Calculation of Basolateral Membrane K^+ Permeability: Membrane Permeabilities were Calculated According to the Formula:
^PK=(cm/s)=^JK(mM/cm^2·s)/Δ[K^+](mM/cm^3)
where Δ[K^+] is equal to the difference in K^+ concentration (135 mM) between the asymmetric apical and basolateral bathing solutions. Maximal Isc values were converted into K^+ fluxes by dividing by the Faraday constant F (96,500 coulombs/mol) as previously described (Huflejt et al., J. Clin. Invest. 93: 1900-1910 (1994)).
Basolateral K+ transport was examined in T84 monolayers permeabilized apically by pretreatment with amphotericin B. Apical and basolateral buffers contained K+ as the sole permeant ion. All studies were performed with a 135 mM basolaterally directed K+ gradient. This method has been utilized previously to examine both Cl— and K+ transport in T84 cells and HT29-Cl.16E cells. Briefly, ion conductances in the luminal or basolateral membranes of confluent T84 cell monolayers can be assessed separately by selectively permeabilizing the apical or basolateral membrane using the ionophore amphotericin B. This artificially removes all electrical resistance to ion transport across the plasma membrane containing pores formed by amphotericin B. As a result, the intact contralateral plasma membrane becomes rate limiting for transepithelial ion transport. Agonist-dependent changes in ion conductances can be assessed directly either as transepithelial short circuit current (Isc) in the presence of established ion gradients, or as transepithelial conductance (G) in the presence of established transepithelial potentials.

T84 cells = assay: Electrogenic Cl- secretion (short circuit current, Isc) in confluent T84 monolayers; type: cell-based, human
[1] = test system: apical membrane Cl- channels; assay: Apical Cl- conductance in T84 monolayers permeabilized basolaterally with amphotericin B; type: cell-based, human; conditions: symmetrical Cl- 142 mM; forskolin 10 μM
[2] = test system: intestinal fluid secretion induced by cholera toxin; type: in vivo, Balb/C mice
[3] = test system: basolateral NaK2Cl cotransporters
rabbit colonic mucosa = assay: Ussing chamber studies using rabbit colonic mucosa; conditions: clotrimazole 30 μM; forskolin 10 μM
Method: 4 male, New Zealand rabbits (2.5 kg) were anesthetized by an intravenous injection of pentobarbital (0.5 ml/kg). A 15 cm length of distal colon was removed and opened longitudinally. […] The volume of fluid on each side of the mucosa was 7 ml.
Potential difference and Isc were monitored continuously and registered every 10 minutes.

[4] = test system: apical membrane Cl- channels; assay: 125I efflux from T84 monolayers; type: cell-based, human
Method: (§1) After four baseline samples were obtained, the cells were treated (at t=8 minutes) with vasoactive intestinal peptide (VIP, […]) or thapsigargin (5 μM) to stimulate Cl— secretion, and an additional 15 timed samples were obtained. Finally, the cell monolayer was rinsed, cut with its support from the polystyrene ring, and the residual cell-associated radioactivity was determined. Monolayers were maintained at 37° C. in room air throughout the study. ^125I was counted by gamma counting and normalized to percent total uptake as previously described (Venglarik, et al, Am. J. Physiol. (Cell Physiol. 28):C358-C364 (1990).

basolateral K+ channel = assay: 86Rb efflux from T84 monolayers (K+ channel activity); type: cell-based, human
Method: as §1, with “Cl^−” for “Cl—”, “^86Rb” for “^125I”, “scintillation” for “gamma”

[5] = test system: basolateral NaK2Cl cotransporters; assay: Bumetanide-sensitive 86Rb uptake in T84 monolayers; conditions: 33 μM for 30 min
[6] = forskolin 10 μM, carbachol 100 μM
[7] = 33 μM, final 30 minutes of preincubation

For `OC(c1ccccc1)(c1ccccc1)c1ccccc1Cl` [2-chlorophenyl-bis-phenyl methanol], the “Inhibition of time course of K+ transport after forskolin and carbachol” value (basolateral K+ channels; [6]) was “Nearly identical results” and the “Inhibition of cAMP and Ca++ elicited chloride secretion” value (T84 cells; T84 cells) was “effective at inhibiting chloride secretion”.
With `[Ba+2].[Cl-].[Cl-]` [BaCl2] the “Effect on K+ transport induced by subsequent addition of carbachol” value (basolateral K+ channels; carbachol 100 μM, same monolayers, BaCl2 3 mM) was “no detectable effect”, the “Inhibition of cAMP-sensitive IK elicited by forskolin” value (basolateral K+ channels; forskolin 10 μM, BaCl2 3 mM basolateral) was “greater than 70%” and the “Inhibition of Cl- secretory response (Isc) to Ca++-dependent agonist carbachol” value (shortened to “Inhibition … to Ca++-dependent agonist carbachol”) (T84 cells) was “no apparent affect”. The “Inhibition of Cl- secretory response (Isc) to cAMP mediated agonist VIP” value (from here on “Inhibition … to cAMP mediated agonist VIP”) (T84 cells) was “strongly inhibited”.
In the case of `C[C@@H]1[C@H](O)[C@@H](C)/C=C/C=C/C=C/C=C/C=C/C=C/C=C/[C@H](O[C@@H]2O[C@H](C)[C@@H](O)[C@H](N)[C@@H]2O)C[C@@H]2O[C@](O)(C[C@@H](O)C[C@@H](O)[C@H](O)CC[C@@H](O)C[C@@H](O)CC(=O)O[C@H]1C)C[C@H](O)[C@H]2C(=O)O` [amphotericin B], the “Increase in conductance on initial permeabilization” value (basolateral K+ channels; amphotericin B apical) was 49±19%.
`C[N+](C)(C)CCOC(N)=O` [carbachol] was tested, and the “Carbachol-induced IscK, carbachol added alone” value (basolateral K+ channels; apically permeabilized monolayers) was 111.7±7.4 μA/cm^2 and the “Carbachol-induced IscK, carbachol added after forskolin” value (basolateral K+ channels; apically permeabilized monolayers, forskolin 10 μM) was 180.7±15.7 μA/cm^2.
In the case of `Clc1ccccc1C(c1ccccc1)(c1ccccc1)n1ccnc1` [clotrimazole], the “Inhibition of time course of K+ transport after forskolin and carbachol” value (basolateral K+ channels; [6]) was “significantly inhibited”, the “Effect on forskolin- or thapsigargin-stimulated Cl- conductances” value [1] was “no detectable effect” and the “Reduction of intestinal fluid secretion induced by cholera toxin” value ([2]; 5 hours) was 86%. The “Effect on intestinal secretion in the absence of cholera toxin” value ([2]; mouse, in vivo) was “no effect”, the “Bumetanide-sensitive fractional component of 86Rb uptake” value [3] was 88±3.2 % total uptake and the “Inhibition of time course of forskolin induced Isc” value (rabbit colonic mucosa) was “inhibited strongly”. The “Effect on time course of 125I efflux from monolayers treated with VIP” value ([4]; 33 μM clotrimazole) was “little or no effect”, the “Effect of pretreatment on 125I loading of the cells” value [4, 7] was “did not alter” and the “Rate constant for 125I efflux” value ([4]; VIP, 33 μM clotrimazole, not treated 0.0645, n=2 in duplicate) was 0.0637 % uptake/minute. The “Reduction of rate constant for VIP-stimulated 86Rb efflux” value (basolateral K+ channel; 33 µM) was 87%, the “Rate constant for VIP-stimulated 86Rb efflux” value (basolateral K+ channel; 33 μM clotrimazole, untreated 0.0465) was 0.0062 % uptake/minute and the “Rate constant for thapsigargin-stimulated 86Rb efflux” value (basolateral K+ channel; 33 μM clotrimazole, untreated 0.048, n=2) was 0.011 % uptake/minute. For the same compound, the “Effect of pretreatment on 86Rb loading of the cells” value (basolateral K+ channel; [7]) was “did not alter”, the “Inhibition of baseline and Ca++ stimulated 86RB efflux” value (basolateral K+ channel; T84 cells with VIP or thapsigargin) was “significantly inhibited” and the pIC50 (T84 cells; Homo sapiens, T84, read-out: IC50 for inhibition of secretory response to E. Coli heat-stabile toxin) was 4.82. For the same compound, the “Inhibition of cAMP and Ca++ elicited chloride secretion” value (T84 cells; T84 cells) was “most potent inhibitor tested”, the “Inhibition … to cAMP mediated agonist VIP” value (T84 cells; T84 cells, VIP 5 nM, BaCl 3 mM, charybdotoxin 100 nM) was “inhibited” and the “Inhibition … to Ca++-dependent agonist carbachol” value (T84 cells; T84 cells, carbachol 100 mM, BaCl 3 mM, charybdotoxin 100 nM) was “inhibited”. For the same compound, the “Apparent potency of inhibition at a fixed time point, basolateral versus apical application” value (T84 cells; T84 monolayers) was “greater when applied basolaterally than apically”, the “Inhibition with basolateral application alone compared with both sides of the monolayer” value (T84 cells; T84 monolayers) was “almost as effective as incubation on both sides” and the “Reversibility of inhibition of Cl- secretion” value (T84 cells; after 60 min recovery in the presence of 0.01 mg/ml bovine serum albumin, n=4) was 96±2%. For the same compound, the “Potentiation of Cl- secretory responses to either agonist at low doses” value (T84 cells; low doses (=10^-7 or less)) was 5-10%, the “Inhibition of secretory response to agonists of the cAMP signalling cascade” value (T84 cells; preincubation 33 μM, 5 μM VIP, 10 μM forskolin or 3 mM 8Br-cAMP) was “inhibited” and the “Inhibition of Cl- secretory response to Ca++-dependent agonists” value (T84 cells; pretreatment 33 μM, carbachol 100 μM, thapsigargin 5 μM or ionomycin 10 μm) was “inhibited strongly”. For the same compound, the “Inhibition of the synergistic secretory response to VIP plus carbachol” value (T84 cells; same monolayers) was “parallel the inhibition of secretion promoted by Ca^++ agonists alone”, the “Reduction of total amount of 86Rb uptake” value ([5]; VIP, mean±SEM, n=6) was 53.6±15.8% and the “Effect on bumetanide-sensitive fractional component of 86Rb uptake” value ([5]; bumetanide 10 μM) was “no effect”.
For `Clc1ccc(COC(Cn2ccnc2)c2ccc(Cl)cc2Cl)cc1` (stereo not shown) [econazole], the “Inhibition of cAMP and Ca++ elicited chloride secretion” value (T84 cells; T84 cells) was “effective at inhibiting chloride secretion”.
For `CC(=O)N1CCN(c2ccc(OCC3COC(Cn4ccnc4)(c4ccc(Cl)cc4Cl)O3)cc2)CC1` (stereo not shown) [ketoconazole], the “Inhibition of cAMP and Ca++ elicited chloride secretion” value (T84 cells; T84 cells) was “effective at inhibiting chloride secretion”.
`Clc1ccc(COC(Cn2ccnc2)c2ccc(Cl)cc2Cl)c(Cl)c1` (stereo not shown) [miconazole] was tested, and the “Inhibition of cAMP and Ca++ elicited chloride secretion” value (T84 cells; T84 cells) was “effective at inhibiting chloride secretion”.
In the case of charybdotoxin, the “Effect on K+ transport induced by subsequent addition of forskolin” value (basolateral K+ channels; charybdotoxin 100 nM) was “no detectable effect”, the “Inhibition of carbachol induced Ca++ IK” value (basolateral K+ channels; pretreatment with charybdotoxin 100 nM) was 50% and the “Inhibition … to Ca++-dependent agonist carbachol” value (T84 cells) was “strongly inhibited”. For the same compound, the “Inhibition … to cAMP mediated agonist VIP” value (T84 cells) was “minimal affects”.
